Marks after values point to notes of the source that are not given here.
Legend:
gastrin = assay: Gastrin content in pyloric tissues; format: in vivo, rat
Excerpt: Meanwhile, in the ondansetron administered group, a change in pylorus gastrin content similar to that in the cisplatin control was shown (FIG. 4(A)).

monoamine oxidase = assay: Pylorus monoamine oxidase activity; format: in vivo, rat
Experimental: Compared to the normal vehicle control, in the cisplatin control, a significant (p<0.01) decrease in activity of a serotonin lyase, monoamine oxidase, in pyloric tissues was shown, but in the Pinelliae Rhizoma and Scutellariae Radix extract 200, 100 and 5 mg/kg administered groups, compared to the cisplatin control, significant (p<0.01) increases in monoamine oxidase activity in pyloric tissues were dose-dependently shown. Meanwhile, in the ondansetron administered group, a change in monoamine oxidase activity similar to that in the cisplatin control was shown (FIG. 3(B)).

[1] = system: cisplatin-induced gastrointestinal motility disorder; assay: Fecal parameters (pellet number, wet and dry weight, water content); format: in vivo, rat; conditions: for Fecal Dry-weight / Fecal Water content / Fecal Wet-weight / Fecal pellet number: feces of 24 hours
[2] = system: serotonin immunoreactive cells; assay: Serotonin immunoreactive cells in pyloric and colonic mucosa; format: in vivo, rat
Experimental: (§1) In the examples, to provide an integrated medical method to reduce side effects caused by a chemotherapeutic agent with respect to a patient with a neoplastic disease, an effect of co-administration of a Pinelliae Rhizoma and Scutellariae Radix extract with respect to a digestive motility disorder caused by the chemotherapeutic agent was examined. In the following examples, rats with a gastrointestinal motility disorder caused by cisplatin were used. 2 mg/kg of cisplatin was administered once a week for 5 weeks, each of 200, 100 and 50 mg/kg of the Pinelliae Rhizoma and Scutellariae Radix extracts were administered at 14 days from the fourth administration of cisplatin, influences on gastrointestinal motility, damage to a digestive tract mucosa and physiology of digestive tract endocrine cells were observed as well as an antioxidative effect, experimental results were compared to an ondansetron 1 mg/kg administered group, wherein the ondansetron was known as a representative 5-HT3 receptor blocking agent to have an effective effect on a cisplatin-induced gastrointestinal motility disorder.
(§2) In this example, as laboratory animals, Sprague-Dawley, Slc: SD rats (6-week-old males, SLC, Shizuoka, Japan) were used. 60 healthy SPF rats were purchased, acclimated for 14 days, and 8 laboratory animals having uniform body weights (intact control: 249.13±12.12 g, 232˜264 g; cisplatin treated group: 225.35±10.58 g, 206˜243 g) when fasting after three weeks of cisplatin administration per each group were selected to be used in the experiment. […] All of the laboratory animals underwent fasting for about 18 hours at each of the first treatment of cisplatin, the first drug administration and the final necropsy (even in this period, drinking water was freely provided), individuals were identified using picric acid.
(§3) To cause a gastrointestinal motility disorder, 2 mg/kg of cisplatin (Sigma-Aldrich, St. Louise, Mo., USA) was dissolved in a saline solution, and the resulting solution was intraperitoneally administered at a dose of 1 ml/kg once a week for 5 weeks, thereby causing a chronic gastrointestinal motility disorder, and in the normal vehicle control, the same dose of a saline solution, instead of cisplatin, was intraperitoneally administered by the same method.
(§4) A Pinelliae Rhizoma and Scutellariae Radix herbal medicine was dissolved in sterile distilled water at a dose of 5 ml/kg (a body weight of the animal) three weeks after the first cisplatin administration, and forcibly and orally administered with a 5 ml syringe equipped with a metal zonde 30 minutes after the fourth cisplatin administration once a day for 14 days. The ondansetron was dissolved in a saline solution, subcutaneously administered with the same frequency as the Pinelliae Rhizoma and Scutellariae Radix herbal medicine at a dose of 1 ml/kg, and in the normal vehicle and cisplatin controls, instead of the Pinelliae Rhizoma and Scutellariae Radix extract or ondansetron, only the same dose of sterile distilled water was orally administered.
(§5) An effect on the gastrointestinal motility was evaluated by evaluating a charcoal transit ratio in the small intestine, effects on constipation were evaluated by observing a body weight, the change in fecal parameters (the fecal pellet number, the fecal weight, and the water content in the feces), the histopathological changes in the colon containing fecal pellets—changes in fecal pellet surface mucosa thickness, mucous producing cell number per mm2 of the mucosa and average mucosa thickness.

serotonin = assay: Serotonin content in pyloric tissues; format: in vivo, rat
Excerpt: Meanwhile, in the ondansetron administered group, a change in pylorus serotonin content similar to that in the cisplatin control was shown (FIG. 4(B)).

[3] = system: gastrin immunoreactive cells; assay: Gastrin immunoreactive cells in pyloric mucosa; format: in vivo, rat
Excerpt: As a result of observing histopathological changes, the numbers of gastrin and serotonin immunoreactive cells in the pyloric mucosa and the number of serotonin immunoreactive cells in the colonic mucosa that were detected are shown in Table 9.
Meanwhile, in the ondansetron administered group, a change in the number of gastrin immunoreactive cells in the pyloric mucosa similar to that in the cisplatin control was shown (Table 9, and FIG. 8).

[4] = system: fundus antioxidant defense system; assay: Fundus antioxidant defense system (MDA, GSH, CAT, SOD); format: in vivo, rat
Excerpt: Changes in MDA content, GSH content, SOD activity, and CAT activity in the fundus in each group that were observed are shown in Table 6.

[5] = Body weight and body weight gain in cisplatin-treated rats; format: in vivo, rat
Experimental: Body weights and body weight gains in each group that were measured after the first and fourth administrations of cisplatin and the necropsy are shown in Table 3.

[6] = system: cisplatin-induced gastrointestinal tract damage (fundic and pyloric mucosa); assay: Histopathology of fundus and pylorus (mucosa thickness, degenerative mucosa percentage)
Experimental: as §1, §2, §3, §4, §5

[7] = system: cisplatin-induced gastrointestinal motility disorder; assay: Charcoal transit ratio in small intestine (gastrointestinal motility); format: in vivo, rat; conditions: for Distance charcoal meal transferred / GI charcoal transit ratio: during 30 min
Excerpt: Also, permeation of a substance through the digestive tract represents the motility in the entire gastrointestinal tract, measurement of a charcoal transit ratio in the small intestine is known to be very useful to diagnose whether or not there is a problem in digestive motility (Wintola et al., 2010), and a decrease in the charcoal transit ratio in the small intestine indicates a decrease in digestive motility such as the fecal retention, that is, constipation (Sagar et al., 2005; Meite et al., 2010).
A total length of a small intestine and a distance that a charcoal meal was transferred in the small intestine were measured, and the charcoal transit ratio was calculated, and then the results are shown in Table 4.

tryptophan hydroxylase = assay: Pylorus tryptophan hydroxylase activity; format: in vivo, rat
Excerpt: Meanwhile, in the ondansetron administered group, a change in tryptophan hydroxylase activity similar to that in the cisplatin control was shown (FIG. 3(A)).

[8] = system: cisplatin-induced colonic mucosa atrophy; format: in vivo, rat; conditions: 1 mg/kg s.c., 14 days
Excerpt: In the cisplatin control, considerable decreases in the mucous producing cell number per unit area (mm^2) and fecal pellet surface mucous thickness were caused along with the atrophy of the total colonic mucosa containing fecal pellets, and thus, compared to the normal vehicle control, significant (p<0.01) decreases in fecal pellet-containing colonic mucosa thickness, the mucous producing cell number in the mucosa and fecal pellet surface mucous thickness were shown.

[9] = cisplatin control (2 mg/kg i.p. weekly) compared to the normal vehicle control
[10] = cisplatin 2 mg/kg i.p. once a week for 5 weeks
[11] = cisplatin control (2 mg/kg i.p. weekly) compared to the normal vehicle control, 33 to 34 days after first cisplatin
[12] = cisplatin-treated rats, at sacrifice
[13] = compared to the cisplatin control
[14] = 1 mg/kg s.c., 14 days, compared to the cisplatin control
[15] = 1 mg/kg s.c., 14 days, cisplatin-treated rats

SMILES: N.N.[Cl][Pt][Cl] [Cisplatin, cis-diaminedichloroplatinum II]
- change of gastrin content in pyloric tissues at the final sacrifice (gastrin; [9]): −59.22%
- change of monoamine oxidase activity in pyloric tissues at the final sacrifice (monoamine oxidase; [9]): −68.47%
- Fecal Dry-weight [1, 10]: 5.14 ± 1.51 g
- Fecal Water content [1, 10]: 32.86 ± 6.45^d %
- Fecal Wet-weight [1, 10]: 7.66 ± 2.14^a g
- Fecal pellet number ([1]; cisplatin 2 mg/kg i.p. once a week for 5 weeks, 33 to 34 days after first cisplatin): 15.75 ± 5.50^a
- change of average dry weight of feces for 24 hours [1, 11]: −7.30%
- change of average water content in feces excreted for 24 hours [1, 11]: −54.47%
- change of average wet weight of the feces excreted for 24 hours [1, 11]: −62.34%
- change of total number of fecal pellets excreted for 24 hours [1, 11]: −61.23%
- Number of Serotonin-IR cells in the colonic mucosa [2, 10]: 73.75 ± 11.79^a cells/mm^2 of mucosa
- Number of Serotonin-IR cells in the pyloric mucosa [2, 10]: 65.38 ± 11.02^a cells/mm^2 of mucosa
- change of number of serotonin immunoreactive cells per unit area of the colonic mucosa [2, 9]: 514.58%
- change of number of serotonin immunoreactive cells per unit area of the pyloric mucosa [2, 9]: 530.12%
- change of serotonin content in pyloric tissues at the final sacrifice (serotonin; [9]): 279.57%
- Number of Gastrin-IR cells in the pyloric mucosa [3, 10]: 11.75 ± 3.77^d cells/mm^2 of mucosa
- change of number of gastrin immunoreactive cells per unit area of the pyloric mucosa [3, 9]: −86.42%
- Fundus Catalase [4, 10]: 44.06 ± 8.98^a nM/mim/mg tissue
- Fundus Glutathione [4, 10]: 1.22 ± 0.40^d μM/mg tissue
- Fundus Malondialdehyde [4, 10]: 16.24 ± 2.27^a nM/g tissue
- Fundus Superoxide dismutase [4, 10]: 71.96 ± 15.54^a nM/mim/mg tissue
- change of CAT activity in fundus tissues at the final sacrifice [4, 9]: −55.83%
- change of GSH content in the fundus tissue at the final sacrifice [4, 9]: −72.46%
- change of MDA content in fundus tissues at the final sacrifice [4, 9]: 327.30%
- change of SOD activity in the fundus tissue at the final sacrifice [4, 9]: −56.87%
- Body weight Sacrifice [C] [5, 10]: 195.13 ± 12.96^a g
- Body weight gain Test article dosing periods [C − B] [5, 10]: −29.88 ± 3.04^d g
- Body weight gain Total experiment periods [C − A] [5, 10]: −4.00 ± 7.01^d g
- Body weight At 4th cisplatin treatment [B] ([5]; cisplatin 2 mg/kg i.p. once a week, three weeks after first administration): 225.00 ± 13.90^a g
- change of body weight gain during the total 5-week experiment [5, 9]: −107.34%
- change of body weight gain for 2 weeks after the drug administration [5, 9]: −896.67%
- Fundus Degenerative mucosa percentage [6, 10]: 54.89 ± 10.97^d %/mucosa
- Fundus Total mucosa thickness [6, 10]: 436.02 ± 87.18^a μm
- Pylorus Degenerative mucosa percentage [6, 10]: 68.26 ± 10.44^a %/mucosa
- Pylorus Total mucosa thickness [6, 10]: 146.12 ± 26.03^a μm
- change of average fundic mucosa thickness [6, 9]: −47.53%
- change of pylorus average mucosa thickness [6, 9]: −61.72%
- Distance charcoal meal transferred [7, 10]: 45.00 ± 11.08^a cm
- GI charcoal transit ratio [7, 10]: 35.61 ± 8.66^a %
- change of charcoal transit ratio in the small intestine [7, 9]: −53.09%
- change of distance that the charcoal meal was transferred in the small intestine [7, 9]: −53.06%
- change of tryptophan hydroxylase activity in pyloric tissues at the final sacrifice (tryptophan hydroxylase; [9]): 184.55%

SMILES: Cc1nccn1CC1CCc2c(c3ccccc3n2C)C1=O (centres unmarked) [Ondansetron, ondansetron]
- Colonic mucosa thickness [8, 12]: 192.08 ± 27.34^ac μm
- Fecal pellet surface mucous thickness [8, 12]: 28.00 ± 6.98^df μm
- Mucous producing cell number [8, 12]: 306.63 ± 78.94^ac cells/mm^2
- change of fecal pellet surface mucous thickness in the colon [8, 13]: 239.94%
- change of fecal pellet-containing colon average mucosa thickness [8, 13]: 72.06%
- change of mucous producing cell number in the colonic mucosa [8, 13]: 126.92%
- change of gastrin content in pyloric tissues at the final sacrifice (gastrin; [14]): −3.05%
- change of monoamine oxidase activity in pyloric tissues at the final sacrifice (monoamine oxidase; [14]): 5.05%
- Fecal Dry-weight [1, 15]: 5.27 ± 1.10 g
- Fecal Water content [1, 15]: 55.32 ± 13.07^ef %
- Fecal Wet-weight [1, 15]: 12.55 ± 3.71^ab g
- Fecal pellet number [1, 15]: 25.38 ± 6.95^ac
- change of average dry weight of feces for 24 hours [1, 14]: 2.48%
- change of average water content in feces excreted for 24 hours [1, 14]: 68.34%
- change of average wet weight of the feces excreted for 24 hours [1, 14]: 63.91%
- change of total number of fecal pellets excreted for 24 hours [1, 14]: 61.11%
- Number of Serotonin-IR cells in the colonic mucosa [2, 15]: 73.00 ± 17.65^a cells/mm^2 of mucosa
- Number of Serotonin-IR cells in the pyloric mucosa [2, 15]: 64.00 ± 10.45^a cells/mm^2 of mucosa
- change of number of serotonin immunoreactive cells per unit area of the colonic mucosa [2, 14]: −1.02%
- change of number of serotonin immunoreactive cells per unit area of the pyloric mucosa [2, 14]: −2.10%
- change of serotonin content in pyloric tissues at the final sacrifice (serotonin; [14]): −4.04%
- Number of Gastrin-IR cells in the pyloric mucosa [3, 15]: 11.63 ± 3.70^d cells/mm^2 of mucosa
- change of number of gastrin immunoreactive cells per unit area of the pyloric mucosa [3, 14]: −1.06%
- Fundus Catalase [4, 15]: 63.48 ± 12.39^ac nM/mim/mg tissue
- Fundus Glutathione [4, 15]: 1.81 ± 0.17^de μM/mg tissue
- Fundus Malondialdehyde [4, 15]: 9.67 ± 1.93^ac nM/g tissue
- Fundus Superoxide dismutase [4, 15]: 103.00 ± 22.32^ac nM/mim/mg tissue
- change of CAT activity in fundus tissues at the final sacrifice [4, 14]: 44.10%
- change of GSH content in the fundus tissue at the final sacrifice [4, 14]: 48.11%
- change of MDA content in fundus tissues at the final sacrifice [4, 14]: −40.45%
- change of SOD activity in the fundus tissue at the final sacrifice [4, 14]: 43.13%
- Body weight Sacrifice [C] [5, 15]: 212.38 ± 4.66^ab g
- Body weight gain Test article dosing periods [C − B] [5, 15]: −14.50 ± 5.68^de g
- Body weight gain Total experiment periods [C − A] [5, 15]: 14.50 ± 11.64^de g
- change of body weight gain during the total 5-week experiment [5, 14]: 463.50%
- change of body weight gain for 2 weeks after the drug administration [5, 14]: 52.46%
- Fundus Degenerative mucosa percentage [6, 15]: 35.42 ± 4.69^de %/mucosa
- Fundus Total mucosa thickness [6, 15]: 592.37 ± 51.61^ac μm
- Pylorus Degenerative mucosa percentage [6, 15]: 41.08 ± 10.77^ac %/mucosa
- Pylorus Total mucosa thickness [6, 15]: 240.01 ± 36.08^ac μm
- change of average fundic mucosa thickness [6, 14]: 35.86%
- change of pylorus average mucosa thickness [6, 14]: 64.25%
- Distance charcoal meal transferred [7, 15]: 65.13 ± 10.68^ac cm
- GI charcoal transit ratio [7, 15]: 50.80 ± 8.85^ac %
- change of charcoal transit ratio in the small intestine [7, 14]: 42.66%
- change of distance that the charcoal meal was transferred in the small intestine [7, 14]: 44.72%
- change of tryptophan hydroxylase activity in pyloric tissues at the final sacrifice (tryptophan hydroxylase; [14]): −4.35%

From patent publication US20180289763A1, “COMPOSITION CONTAINING HERBAL MEDICINE EXTRACTS OF PINELLIA AND SCUTELLARIA FOR REDUCING SIDE EFFECTS DUE TO ANTICANCER DRUGS” (COMPREHENSIVE AND INTEGRATIVE MEDICINE INSTITUTE, priority 2013, published 2018)
